We go through three molecules from patent EP0239801B1, “Plant cells resistant to herbicidal glutamine synthetase inhibitors” (THE GENERAL HOSPITAL CORPORATION, priority 1986, dated 1987).

Test [1] deals with variant PPT resistant alfalfa cell line. As to the kind of experiment: Growth of suspension cultures (packed cell volume), selected resistant cells. Format: cell-based. Here is the method:
The amide nitrogen of glutamine provides the source of nitrogen for many biosynthetic reactions, indicating a central role for GS in nitrogen metabolism.
Selection is carried out in an appropriate culture medium by cultivating plant cells in the presence of stepwise increases of the herbicidal GS-inhibitor in the medium. After a given period of time has elapsed, such as, for example, a few weeks to several months, it is possible to select a cell population which is several-fold more resistant to the herbicidal GS-inhibitor than the original plant cells. For example, when the cells are alfalfa and the inhibitor is PPT, it has been possible to obtain a PPT-resistant alfalfa cell line after one year of stepwise PPT increases, which line was 20-fold more resistant to PPT than the original line. […] This was never possible by plating wild-type cells.
An alfalfa cell line which is able to grow in the presence of 3 mM L-phosphinothricin in the culture medium was selected. Alfalfa was chosen since it is one of the model plants in which the regeneration of a whole plant from single isolated cells or protoplasts can be readily achieved.
The selection of the phosphinothricin resistant alfalfa line was done by stepwise increase of the inhibitor concentration in the liquid culture medium. […]

Test [2] has as its target glutamine synthetase from E. coli (Escherichia coli, UniProt P0A9C5). Conditions: competitive inhibitor; cited from earlier work.
Test [3] concerns the target pea leaf glutamine synthetase. Conditions: cited from earlier work.
The next test deals with GS. Kind of test: GS activity of cell extracts in the presence of various amounts of phosphinothricin. The class given is biochemical, alfalfa. Conditions: both cell types. Here is the method: When the protein patterns of crude cell extracts of the susceptible and resistant cell lines were compared by SDS-polyacrylamide gel electrophoresis, the overproduction of a polypeptide in the molecular weight range 40-42 KD could be observed in the PPT-resistant cell line. Purified GS of alfalfa has the same molecular weight. The enzyme activity of the cell extracts was determined in parallel. The specific GS-activity in the resistant cells was 5-10 fold higher than in wild-type cells. The specific activity of GS in the PPT-resistant cell lines is in the same order of magnitude as in root nodule tissue of alfalfa, which, as all nodule tissues of efficiently dinitrogen fixing legumes, has high GS-activity.

In another test the test system is dicotyledonous weeds. Conditions: field trials in West Germany, Spain, South Africa, U.S.A. and Japan; Schwerdtle 1981; cited from earlier work.
The test system of another test is monocotyledonous weeds. Conditions: field trials; Schwerdtle 1981; cited from earlier work.

Structures are written as SMILES. Where two headings read alike, the source gives them in different places.

Chain of glutamine synthetase from E. coli (P0A9C5 2-469): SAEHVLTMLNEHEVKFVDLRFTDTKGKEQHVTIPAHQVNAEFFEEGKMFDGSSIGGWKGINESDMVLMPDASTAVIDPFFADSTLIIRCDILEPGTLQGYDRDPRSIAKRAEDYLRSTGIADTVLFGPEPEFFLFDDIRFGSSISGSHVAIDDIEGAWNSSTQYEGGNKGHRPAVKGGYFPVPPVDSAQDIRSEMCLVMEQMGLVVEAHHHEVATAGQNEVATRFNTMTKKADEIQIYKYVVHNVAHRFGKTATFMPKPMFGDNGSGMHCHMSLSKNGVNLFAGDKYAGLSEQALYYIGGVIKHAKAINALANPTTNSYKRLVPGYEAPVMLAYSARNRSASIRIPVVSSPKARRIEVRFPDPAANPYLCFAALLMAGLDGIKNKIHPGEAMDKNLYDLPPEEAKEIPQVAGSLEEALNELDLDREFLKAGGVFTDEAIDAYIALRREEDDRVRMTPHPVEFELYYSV

Take `CP(=O)(O)CC[C@H](N)C(=O)O` [L-phosphinothricin]: the “concentration in the culture medium in the presence of which the selected cell line is able to grow” value in test [1] is 3 mM.

Consider `CP(=O)(O)CC[C@H](N)C(=O)O` [PPT, phosphinothricin], for which the Ki was 5.9 µM in test [2] and 73 µM in test [3] (mixed competitive inhibitor, Leason et al. 1982, read-out: apparent Ki value). Also, in the test on GS, the “enzyme inhibition in wild-type versus resistant cell extracts” value is on record as “same degree of enzyme inhibition”. Also, the weed control entry is “well controlled” in the test on dicotyledonous weeds and “somewhat higher quantities were needed for good control” in the test with monocotyledonous weeds.

With `CS(=N)(=O)CCC(N)C(=O)O` (stereo not shown) [MSO, methionine sulfoximime], the Ki in test [3] (read-out: Ki value) was 160 µM.
